Reference: patent publication US20250325636A1, “USE OF ENDOTHELIN RECEPTOR TYPE B AGONISTS FOR THE TREATMENT OF AORTIC VALVE STENOSIS” (INSTITUT NATIONAL DE LA SANTÉ ET DE LA RECHERCHE MÉDICALE, priority 2022, published 2025)

Test system: valvular interstitial cells (VIC)
Experiment: Calcium content of valvular interstitial cells cultured in pro-calcifying medium containing inorganic phosphate (o-cresolphtalein-based assay)
Type: cell-based, human
Settings: VIC in procalcifying conditions containing inorganic phosphate (Pi), 10 days, compared to non-treated VIC
Procedure: Valvular endothelial cells (VEC), isolated from human aortic valves, were cultured in a cell perfusion system to assess ET-1 production in different fluid flow shear stress conditions. In addition, valvular interstitial cells (VIC) were cultured in a pro-calcifying culture medium containing inorganic phosphate (Pi) with or without antagonists of either the ETA or ETB receptor antagonists or with the agonist of the ETB receptor IRL 1620 during 10 days. Aortic valves from rats were also cultured in ex vivo and stimulated with ET-1 antagonists. Calcium content was assessed using an o-cresolphtalein-based assay and fluorescence by Osteosens. VEC prepro-ET-1 and VIC osteogenic mRNA expression levels were evaluated by RTqPCR.

N-Succinyl-[Glu9, Alal U5]-Endothelin 1 fragment 8-21 [IRL-1620]
Calcium content of VIC: decreased the calcium content of VIC
Calcium content of VIC (listed as IRL 1620): decreases their calcium content
